The values below are quoted from earlier work in patent publication US8975284B2, “Co-solvent compositions and methods for improved delivery of dantrolene therapeutic agents” (US WorldMeds LLC, priority 2007, dated 2015).

Where two headings read alike, the source gives them in different places.

Assay in data set [1]: not given
The source holds these as a separate data set.

Assay in data set [2]: not given
This is another data set of the same source.

Take `CC(C)(C)O` [TBA, Tertiary Butyl Alcohol]: the pKa is reported as 15.37 ± 0.29.
In the case of `O=C1CN(/N=C/c2ccc(-c3ccc([N+](=O)[O-])cc3)o2)C(=O)[N-]1.[Na+]` [Dantrolene sodium, 1-[[5-(p-nitrophenyl)furfurylidene]-amino]hydantoin sodium salt], the pKa in data set [1] is 7.4.
For `O=C1CN(N=Cc2ccc(-c3ccc([N+](=O)[O-])cc3)o2)C(=O)N1` [dantrolene, 1-[5-(p-nitrophenyl)furfurylideneamino]hydantoin], in data set [2], the “solubility of free acid form” value is reported as “totally insoluble”. For the same compound, the pKa entry in data set [1] was “about 7.5”.
